Key:
[1] = tested on: barnyardgrass; assay: Test Example 2: soil surface treatment, upland pot test; type: in vivo, Echinochloa crus-galli L.; conditions: observed 20th to 28th day
Summary of the method: (§1)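 In this pre-emergence upland pot test, a small sprayer delivered the diluted compound formulation (1,500 L/ha water) to the soil surface the day after seeding. Plants were then observed, and control was scored from 0 to 100% some 20–28 days after treatment.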

[2] = tested on: crabgrass; assay: as above; type: in vivo, Digitaria sanguinalis L.; conditions: observed 20th to 28th day
Summary of the method: as §1

[3] = tested on: green foxtail; assay: as above; type: in vivo, Setaria viridis L.; conditions: observed 20th to 28th day
Summary of the method: as §1

[4] = tested on: redroot pigweed; assay: as above; type: in vivo, Amaranthus retroflexus L.; conditions: observed 20th to 28th day
Summary of the method: as §1

[5] = tested on: prickly sida; assay: as above; type: in vivo, Sida spinosa L.; conditions: observed 20th to 28th day
Summary of the method: as §1

[6] = tested on: velvetleaf; assay: as above; type: in vivo, Abutilon theophrasti MEDIC.; conditions: observed 20th to 28th day
Summary of the method: as §1

[7] = tested on: rice; assay: as above; type: in vivo, Oryza sativa L.; conditions: observed 20th to 28th day
Summary of the method: as §1

[8] = tested on: wheat; assay: as above; type: in vivo, Triticum spp.; conditions: observed 20th to 28th day
From the text: Upland field soil was put into a 1/170,000 ha pot, and seed of various plants (barnyardgrass, crabgrass, green foxtail, redroot pigweed, prickly sida, velvetleaf, rice, wheat, corn, soybean) were sown. On the 1st day after the sowing, a wettable powder or emulsifiable concentrate having the compound of the present invention formulated in accordance with a usual formulation method, was weighed so that the active ingredient would be a predetermined amount, and diluted with water in an amount of 1,500 L/ha. The herbicide thus adjusted was applied by a small size sprayer for soil surface treatment. On the 20th to 28th days after the application of the herbicide, the growth of the respective plants was visually observed, and the herbicidal effects were evaluated by the growth controlling degrees (%) ranging from 0 (equivalent to the non-treated plot) to 100 (complete kill), whereby the results shown in Table 4, were obtained.

[9] = tested on: corn; assay: as above; type: in vivo, Zea mays L.; conditions: observed 20th to 28th day
Summary of the method: as §1

[10] = tested on: soybean; assay: as above; type: in vivo, Glycine max Merr.; conditions: observed 20th to 28th day
Summary of the method: as §1

[11] = tested on: barnyardgrass; assay: Test Example 3: paddy pot test, application under submerged conditions; type: in vivo, Echinochloa crus-galli L.; conditions: submerged application at 0.5 leaf stage, visually observed 14 days after application, 0 = non-treated, 100 = complete kill
Summary of the method: (§2)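 Paddy soil pots; seeds sown, lightly covered; flooded 0.5–1 cm in greenhouse; wapato tubers planted day 1–2; flood raised to 3–4 cm. Submerged pipette application at 0.5 leaf / primary leaf stage. Visual score day 14, 0–100%.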

[12] = tested on: japanese bulrush; assay: as above; type: in vivo, Scirpus juncoides; conditions: submerged application at 0.5 leaf stage, visually observed 14 days after application, 0 = non-treated, 100 = complete kill
Summary of the method: as §2

[13] = tested on: japanese ribbon wapato; assay: as above; type: in vivo, Sagittaria pygniaea; conditions: submerged application at primary leaf stage, visually observed 14 days after application, 0 = non-treated, 100 = complete kill
Summary of the method: as §2

[14] = tested on: rice (var. Nihonbare); assay: Test Example 3: paddy pot test, transplanted rice; type: in vivo, Oryza sativa L.; conditions: applied 4th day after transplantation, visually observed 21st day after application, 0 = non-treated, 100 = complete kill
Summary of the method: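 Visual crop-injury rating (0 = as untreated, 100 = complete kill, %) taken 21 days post-application. Treatment: formulated compound, water-diluted, pipetted into 3–4 cm flood water at a preset active-ingredient dose, 4 days after transplanting 2-leaf Nihonbare rice 3 cm deep in puddled paddy soil.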

[15] = active ingredient 1000 g/ha, 0 = non-treated, 100 = complete kill

SMILES	Growth controlling degree (%) Barnyardgrass [1, 15] [%]	Growth controlling degree (%) Crabgrass ([2]; active ingredient 1000 g/ha) [%]	Growth controlling degree (%) Green foxtail ([3]; active ingredient 1000 g/ha) [%]	Growth controlling degree (%) Redroot pigweed ([4]; active ingredient 1000 g/ha) [%]	Growth controlling degree (%) Prickly sida ([5]; active ingredient 1000 g/ha) [%]	Growth controlling degree (%) Velvetleaf ([6]; active ingredient 1000 g/ha) [%]	Growth controlling degree (%) Rice ([7]; active ingredient 1000 g/ha) [%]	Growth controlling degree (%) wheat ([8]; active ingredient 1000 g/ha) [%]	Growth controlling degree (%) Corn ([9]; active ingredient 1000 g/ha) [%]	Growth controlling degree (%) Soyabean ([10]; active ingredient 1000 g/ha) [%]	Growth controlling degree (%) Barnyardgrass ([11]; active ingredient 500 g/ha) [%]	Growth controlling degree (%) Japanese bulrush ([12]; active ingredient 500 g/ha) [%]	Growth controlling degree (%) Japanese ribbon wapato ([13]; active ingredient 500 g/ha) [%]	Growth controlling degree (%) Rice ([14]; active ingredient 500 g/ha) [%]	other results
CC(C)C(NC(=O)Cc1ccccc1)c1cnccc1C(F)(F)F (centres unmarked) [Compound I-3]	0	90	90	20	10	0	10	0	0	0					Growth controlling degree (%) Barnyardgrass ([11]; active ingredient 1000 g/ha): 90%; Growth controlling degree (%) Japanese bulrush ([12]; active ingredient 1000 g/ha): 98%; Growth controlling degree (%) Japanese ribbon wapato ([13]; active ingredient 1000 g/ha): 30%; Growth controlling degree (%) Rice ([14]; active ingredient 1000 g/ha): 20%
CC(C)C(NC(=O)Cc1ccc(Br)cc1)c1cnccc1C(F)(F)F (centres unmarked) [Compound I-8]	50	50	50	80	50	0	10	30	10	30	90	90	10	0	
COC(=O)NC(c1cnccc1C(F)(F)F)c1cccc2ccccc12 (centres unmarked) [Compound I-45]	0	90	60	40	40	40	50	30	20	0	85	90	60	30	
CN(C(=O)Cc1ccccc1)C(c1cnccc1C(F)(F)F)c1cccc2ccccc12 (centres unmarked) [Compound I-47]											98	30	0	10	Growth controlling degree (%) Barnyardgrass ([1]; active ingredient 2000 g/ha): 60%; Growth controlling degree (%) Crabgrass ([2]; active ingredient 2000 g/ha): 90%; Growth controlling degree (%) Green foxtail ([3]; active ingredient 2000 g/ha): 80%; Growth controlling degree (%) Redroot pigweed ([4]; active ingredient 2000 g/ha): 0%; Growth controlling degree (%) Prickly sida ([5]; active ingredient 2000 g/ha): 40%; Growth controlling degree (%) Velvetleaf ([6]; active ingredient 2000 g/ha): 20%; Growth controlling degree (%) Rice ([7]; active ingredient 2000 g/ha): 0%; Growth controlling degree (%) wheat ([8]; active ingredient 2000 g/ha): 20%; Growth controlling degree (%) Corn ([9]; active ingredient 2000 g/ha): 10%; Growth controlling degree (%) Soyabean ([10]; active ingredient 2000 g/ha): 10%
CC(C)C(c1cnccc1C(F)(F)F)N(C)C(=O)Cc1cccc(F)c1 (centres unmarked) [Compound I-20]												90	90	40	Growth controlling degree (%) Barnyardgrass ([1]; active ingredient 500 g/ha): 100%; Growth controlling degree (%) Crabgrass ([2]; active ingredient 500 g/ha): 100%; Growth controlling degree (%) Green foxtail ([3]; active ingredient 500 g/ha): 100%; Growth controlling degree (%) Redroot pigweed ([4]; active ingredient 500 g/ha): 95%; Growth controlling degree (%) Prickly sida ([5]; active ingredient 500 g/ha): 100%; Growth controlling degree (%) Velvetleaf ([6]; active ingredient 500 g/ha): 100%; Growth controlling degree (%) Rice ([7]; active ingredient 500 g/ha): 0%; Growth controlling degree (%) wheat ([8]; active ingredient 500 g/ha): 40%; Growth controlling degree (%) Corn ([9]; active ingredient 500 g/ha): 70%; Growth controlling degree (%) Soyabean ([10]; active ingredient 500 g/ha): 30%
CC(C)C(NC(=O)Cc1c(F)cccc1F)c1cnccc1C(F)(F)F (centres unmarked) [Compound I-5]	30	90	70	0	0	0	10	10	20	10	60	90	50	20	
CN(C(=O)Cc1cccs1)C(c1cnccc1C(F)(F)F)c1cccc2ccccc12 (centres unmarked) [Compound I-48]											100	30	0	10	Growth controlling degree (%) Barnyardgrass ([1]; active ingredient 2000 g/ha): 20%; Growth controlling degree (%) Crabgrass ([2]; active ingredient 2000 g/ha): 70%; Growth controlling degree (%) Green foxtail ([3]; active ingredient 2000 g/ha): 100%; Growth controlling degree (%) Redroot pigweed ([4]; active ingredient 2000 g/ha): 30%; Growth controlling degree (%) Prickly sida ([5]; active ingredient 2000 g/ha): 20%; Growth controlling degree (%) Velvetleaf ([6]; active ingredient 2000 g/ha): 40%; Growth controlling degree (%) Rice ([7]; active ingredient 2000 g/ha): 20%; Growth controlling degree (%) wheat ([8]; active ingredient 2000 g/ha): 30%; Growth controlling degree (%) Corn ([9]; active ingredient 2000 g/ha): 10%; Growth controlling degree (%) Soyabean ([10]; active ingredient 2000 g/ha): 0%
CCC(=O)NC(c1cnccc1C(F)(F)F)c1cccc2ccccc12 (centres unmarked) [Compound I-42]	70	90	90	0	0	0	0	30	10	0	70	95	10	30	
CC(C)C(c1cnccc1Cl)N(C)C(=O)Cc1ccccc1 (centres unmarked) [I-22]												95	95	0	Growth controlling degree (%) Barnyardgrass ([1]; active ingredient 500 g/ha): 90%; Growth controlling degree (%) Crabgrass ([2]; active ingredient 500 g/ha): 95%; Growth controlling degree (%) Green foxtail ([3]; active ingredient 500 g/ha): 90%; Growth controlling degree (%) Redroot pigweed ([4]; active ingredient 500 g/ha): 90%; Growth controlling degree (%) Prickly sida ([5]; active ingredient 500 g/ha): 70%; Growth controlling degree (%) Velvetleaf ([6]; active ingredient 500 g/ha): 70%; Growth controlling degree (%) Rice ([7]; active ingredient 500 g/ha): 10%; Growth controlling degree (%) wheat ([8]; active ingredient 500 g/ha): 30%; Growth controlling degree (%) Corn ([9]; active ingredient 500 g/ha): 20%; Growth controlling degree (%) Soyabean ([10]; active ingredient 500 g/ha): 10%
CC(C)C(c1cnccc1C(F)(F)F)N(C)C(=O)C1CC1 (centres unmarked) [Compound I-204]															Growth controlling degree (%) Barnyardgrass ([1]; active ingredient 250 g/ha): 100%; Growth controlling degree (%) Crabgrass ([2]; active ingredient 250 g/ha): 100%; Growth controlling degree (%) Green foxtail ([3]; active ingredient 250 g/ha): 100%; Growth controlling degree (%) Redroot pigweed ([4]; active ingredient 250 g/ha): 95%; Growth controlling degree (%) Prickly sida ([5]; active ingredient 250 g/ha): 95%; Growth controlling degree (%) Velvetleaf ([6]; active ingredient 250 g/ha): 70%; Growth controlling degree (%) Rice ([7]; active ingredient 250 g/ha): 100%; Growth controlling degree (%) wheat ([8]; active ingredient 250 g/ha): 95%; Growth controlling degree (%) Corn ([9]; active ingredient 250 g/ha): 70%; Growth controlling degree (%) Soyabean ([10]; active ingredient 250 g/ha): 70%; Growth controlling degree (%) Barnyardgrass ([11]; active ingredient 250 g/ha): 100%; Growth controlling degree (%) Japanese bulrush ([12]; active ingredient 250 g/ha): 98%; Growth controlling degree (%) Rice ([14]; active ingredient 250 g/ha): 60%

Reference: patent US20050239656A1, “Pyridine compounds or salts thereof and herbicides containing the same” (priority 2002, published 2005)
